From patent publication EP4596537A1, “NOVEL FLUORENE DERIVATIVE COMPOUND AND USE THEREOF” (JD Bioscience Inc., priority 2022, dated 2024)

Assays:
NCI-H295R cells = experiment: Cortisol production (ELISA), Cushing's syndrome cell model; assay type: cell-based, human; settings: 0.1 µM, 0.5 µM, and 1 µM; 0.5 mM 8-Br-cAMP; concentration-dependent
Method: NCI-H295R cells (ATCC #CRL-2128), which are a human adrenocortical carcinoma cell line, were seeded at a density of 2.5 × 10^5 cells/well in a 24-well plate. The cells were cultured for 48 hours, and then they were pretreated with Compound 1 (0.1 µM, 0.5 µM, and 1 µM) for 12 hours. Furthermore, to increase cortisol synthesis, the cells were treated with 8-bromoadenosine […] monophosphate (8-Br-cAMP) at a concentration of 0.5 mM, and then re-treated with Compound 1, and allowed to react for 24 hours. After the reaction, the cell culture medium was collected, and the amount of cortisol produced in the cells was measured using an ELISA kit, and the results are shown in FIG. 14.

mice = experiment: Acute pancreatitis animal model (cerulein-induced); assay type: in vivo; settings: 5 µg/kg or 10 µg/kg tail vein; dose-dependent
Method: Acute pancreatitis was induced by intraperitoneal administration of cerulein (50 µg/kg) dissolved in saline to 8-week-old male mice. Compound 1 was administered at a concentration of 5 µg/kg or 10 µg/kg into the tail vein 24 hours and 1 hour before cerulein administration, and cerulein was intraperitoneally administered six times at 1-hour intervals. 18 hours after the first cerulein administration, the mice were anesthetized, the serum was separated, and the amylase and lipase activities in the serum were measured, which are shown in FIG. 8.

normal cells = experiment: Growth inhibition (Cell Counting Kit-8), normal cells; assay type: cell-based; settings: 24 hours, 10% FBS; concentration of up to less than 40 µM
Method: In order to verify the growth inhibitory effect of Compound 1 on various normal and cancer cell lines, 25 types of cell lines listed in Table 7 below were tested. In detail, each cell was seeded at a density of 2 × 10^4 cells/well in a 96-well plate and cultured for 24 hours, and then the medium was replaced with a medium comprising 0.5% (for cancer cells) or 10% (for normal cells) FBS, and Compound 1 was treated at various concentrations. 24 hours later, 10 µL of Cell Counting Kit-8 (Dojindo Molecular Technologies) was added, and 1 hour later, absorbance at 480 nm was measured using a microplate reader (TECAN SPARK), and the results are shown in FIGS. 15 to 21.

Structure (SMILES): CC(C(=O)NNc1ccc(F)cc1)n1cc(-c2cc(F)cc3c2-c2ccccc2C3(O)C(F)(F)F)cn1 (stereo not shown) [Example 1, 2-(4-(2-fluoro-9-hydroxy-9-(trifluoromethyl)-9H-fluoren-4-yl)-1H-pyrazol-1-yl)-N'-(4-fluorophenyl)propanehydrazide]
- cortisol production (NCI-H295R cells): significantly inhibited
- serum amylase activity (mice): decreased
- serum lipase activity (mice): decreased
- viability (normal cells): ≥ 70%
